Data: US12023385B2, “Tunable endogenous protein degradation with heterobifunctional compounds” (DANA-FARBER CANCER INSTITUTE, INC., priority 2017, dated 2024)
Entries after “also recorded” stand apart in the source; their conditions may differ.

Key:
[1] = system: KRAS signaling (pMEK and pAKT); experiment: Immunoblot of downstream surrogates of KRAS signaling in NIH3T3 cells expressing dTAG-KRAS; assay type: cell-based
Procedure: (§1) Cells were treated with 500 nM dFKBP7 for the indicated time. Cells were harvested and immunoblotted to measure degradation of FKBP*-KRAS and downstream surrogates of KRAS signaling (e.g. pMEK and pAKT).
In an effort to identify the best performing dFKBP molecule, dTAG-KRAS degradation was profiled across a series of dFKBP molecules. Western blotting of NIH3T3 cells expressing dTAG-KRASG12V were treated with 1 μM of the indicated dFKBP heterobifunctional compounds for 24 hours. Cells were harvested and immunoblotted to measure degradation of FKBP*-KRAS and downstream surrogates of KRAS signaling (e.g. pMEK and pAKT).
(§2) Western blotting of NIH3T3 cells expressing FKBP* fused to the N-terminus of KRAS treated with the indicated concentrations of dFKBP13 for 24 hours. Cells were harvested and immunoblotted to measure degradation of FKBP*-KRAS and downstream surrogates of KRAS signaling (e.g. pMEK and pAKT).
(§3) To evaluate the kinetic control of targeted degradation of dTAG-KRAS, dFKBP13 was administered by increased duration. Western blotting of NIH3T3 cells expressing FKBP* fused to the N-terminus of KRAS treated with 1 μM dFKBP13 for the indicated time. Cells were harvested and immunoblotted to measure degradation of FKBP*-KRAS and downstream surrogates of KRAS signaling (e.g. pMEK and pAKT).
The dFKBP13 heterobifunctional compound potently degrades dTAG-KRAS mutant alleles. […]

FKBP* = target: T1, FKBP* (Homo sapiens, UniProt P62942, F37V); experiment: Immunoblot of FKBP* degradation in 293FT cells (CRBN-WT or CRBN−/−); assay type: cell-based; settings: 4 hours
T1 construct: HA; expressed in transfected cells; host or cells: 293FT cells (CRBN-WT or CRBN-/-)
T1 sequence (P62942 whole entry F37V): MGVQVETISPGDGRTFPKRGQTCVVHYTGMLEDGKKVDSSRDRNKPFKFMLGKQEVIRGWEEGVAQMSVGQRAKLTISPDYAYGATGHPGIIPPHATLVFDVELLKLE
Procedure: (§4) The dTAG is predicated on the selectivity of FKBP* specific ligands over endogenous, wild type FKBP. In 293T cells expressing wild type FKBP12 or FKBP*, dFKBP7 induces targeted degradation only in FKBP* expressing cells. An immunoblot of cells treated with heterobifunctional compounds described in the present invention was performed. 293FT cells (CRBN-WT or CRBN−/−) expressing either HA-tagged FKBP12WT or FKBP* were treated with indicated concentrations of dFKBP7 for 4 hours.
In 293T cells expressing wild type FKBP12 or FKBP*, treatment with dFKBP7 and dFKBP13 induces targeted degradation only in FKBP* expressing cells. Isogenic 293FT cells (CRBN-WT or CRBN−/−) were engineered to expressed either FKBP12WT or FKBP*. Cells were treated with 100 nM of either dFKBP7 or dFKBP13 for 4 hours before lysates were prepared for western immunoblot analysis.
In an effort to define the optimal concentration of dFKB13 heterobifunctional compound to induce degradation of FKBP*, degradation was measured upon treatment with increasing concentrations of dFKBP13. Isogenic 293FT cells (CRBN-WT or CRBN−/−) were engineered to expressed HA-tagged FKBP*. Cells were treated with the indicated dose of dFKBP13 for 4 hours before lysates were prepared for western immunoblot analysis.
To evaluate the kinetic control of targeted degradation FKBP*, dFKBP13 was administered by increased duration. […]

[2] = system: indicated proteins fused to mutant FKBP* with an HA tag; experiment: Immunoblot of proteins fused to dTAG (FKBP*) in MV4;11 leukemia cells; settings: indicated concentrations, 16 hours, western blot
Source text: To test the general utility of the dTAG technology across several protein types, the indicated proteins fused to the dTAG in MV4;11 leukemia cells were expressed.

FKBP12WT = target: T2, FKBP12WT (Homo sapiens, UniProt P62942); experiment: Immunoblot of wild type FKBP12 in 293FT cells (selectivity control); assay type: cell-based; settings: 4 hours
T2 construct: HA; expressed in transfected cells; host or cells: 293FT cells (CRBN-WT or CRBN-/-)
T2 sequence (P62942 whole entry): as the sequence (P62942 whole entry F37V) above, with V37F counted along it
Procedure: as §4, with “In 293T cells expressing wild type FKBP12 or FKBP*, dFKBP7 induces targeted degradation only in FKBP* expressing cells.” left out
Isogenic 293FT cells (CRBN-WT or CRBN−/−) were engineered to expressed either FKBP12WT or FKBP*. Cells were treated with 100 nM of either dFKBP7 or dFKBP13 for 4 hours before lysates were prepared for western immunoblot analysis.

FKBP*-KRASG12V = experiment: Immunoblot of FKBP*-KRASG12V (dTAG-KRAS) degradation in NIH3T3 cells; assay type: cell-based
Procedure: as §1
Western blotting of NIH3T3 cells expressing dTAG-KRASG12V were treated with 1 μM of the indicated dFKBP heterobifunctional compounds for 24 hours. Cells were harvested and immunoblotted to measure degradation of FKBP*-KRAS and downstream surrogates of KRAS signaling (e.g. pMEK and pAKT).
as §2, §3
NIH3T3 cells (CRBN-WT) were engineered to express dTAG-KRASG12V. […]

[3] = system: NIH3T3 cells expressing dTAG-KRASG12V; experiment: Propidium iodide cell cycle analysis of NIH3T3 cells expressing dTAG-KRASG12V; assay type: cell-based; settings: 48 hours
Procedure: NIH3T3 cells were engineered to express dTAG-KRASG12V. NIH3T3 cells expressing dTAG-KRASG12V were treated with dFKBP7 and dFKBP13 for 48 hours to induce targeted dTAG-KRASG12V degradation. Fixed cells were stained with propidium iodide and cell cycle analysis was performed.

FKBP* fused to Nluc = target: T3, FKBP* fused to Nluc (Homo sapiens, UniProt P62942, F37V); experiment: Nluc/Fluc luciferase ratio assay of FKBP* degradation in 293FT cells; assay type: cell-based; settings: wild type or CRBN−/− 293FT cells, indicated concentrations, 4 hours
T3 construct: Nluc (nano luciferase) fusion partner; expressed in transfected cells; host or cells: 293FT cells (wild type or CRBN-/-)
T3 sequence (P62942 2-108 F37V): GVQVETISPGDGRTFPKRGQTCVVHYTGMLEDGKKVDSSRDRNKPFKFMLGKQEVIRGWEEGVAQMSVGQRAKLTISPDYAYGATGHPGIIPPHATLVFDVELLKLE
T3 sequence (Q96SW2 whole entry partner, the tested form may be a part): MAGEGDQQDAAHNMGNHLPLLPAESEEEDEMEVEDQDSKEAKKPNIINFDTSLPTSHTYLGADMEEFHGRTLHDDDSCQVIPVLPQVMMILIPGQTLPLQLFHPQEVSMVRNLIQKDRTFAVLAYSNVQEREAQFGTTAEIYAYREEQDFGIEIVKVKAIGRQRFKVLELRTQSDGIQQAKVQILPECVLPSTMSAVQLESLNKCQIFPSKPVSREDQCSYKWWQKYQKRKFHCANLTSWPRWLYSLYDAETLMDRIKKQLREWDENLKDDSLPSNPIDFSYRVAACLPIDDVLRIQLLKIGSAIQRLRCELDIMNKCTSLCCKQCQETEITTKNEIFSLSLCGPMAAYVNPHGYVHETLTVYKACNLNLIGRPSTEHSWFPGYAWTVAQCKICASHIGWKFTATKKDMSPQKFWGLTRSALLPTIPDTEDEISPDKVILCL
T3 sequence (Q16531 whole entry partner, the tested form may be a part): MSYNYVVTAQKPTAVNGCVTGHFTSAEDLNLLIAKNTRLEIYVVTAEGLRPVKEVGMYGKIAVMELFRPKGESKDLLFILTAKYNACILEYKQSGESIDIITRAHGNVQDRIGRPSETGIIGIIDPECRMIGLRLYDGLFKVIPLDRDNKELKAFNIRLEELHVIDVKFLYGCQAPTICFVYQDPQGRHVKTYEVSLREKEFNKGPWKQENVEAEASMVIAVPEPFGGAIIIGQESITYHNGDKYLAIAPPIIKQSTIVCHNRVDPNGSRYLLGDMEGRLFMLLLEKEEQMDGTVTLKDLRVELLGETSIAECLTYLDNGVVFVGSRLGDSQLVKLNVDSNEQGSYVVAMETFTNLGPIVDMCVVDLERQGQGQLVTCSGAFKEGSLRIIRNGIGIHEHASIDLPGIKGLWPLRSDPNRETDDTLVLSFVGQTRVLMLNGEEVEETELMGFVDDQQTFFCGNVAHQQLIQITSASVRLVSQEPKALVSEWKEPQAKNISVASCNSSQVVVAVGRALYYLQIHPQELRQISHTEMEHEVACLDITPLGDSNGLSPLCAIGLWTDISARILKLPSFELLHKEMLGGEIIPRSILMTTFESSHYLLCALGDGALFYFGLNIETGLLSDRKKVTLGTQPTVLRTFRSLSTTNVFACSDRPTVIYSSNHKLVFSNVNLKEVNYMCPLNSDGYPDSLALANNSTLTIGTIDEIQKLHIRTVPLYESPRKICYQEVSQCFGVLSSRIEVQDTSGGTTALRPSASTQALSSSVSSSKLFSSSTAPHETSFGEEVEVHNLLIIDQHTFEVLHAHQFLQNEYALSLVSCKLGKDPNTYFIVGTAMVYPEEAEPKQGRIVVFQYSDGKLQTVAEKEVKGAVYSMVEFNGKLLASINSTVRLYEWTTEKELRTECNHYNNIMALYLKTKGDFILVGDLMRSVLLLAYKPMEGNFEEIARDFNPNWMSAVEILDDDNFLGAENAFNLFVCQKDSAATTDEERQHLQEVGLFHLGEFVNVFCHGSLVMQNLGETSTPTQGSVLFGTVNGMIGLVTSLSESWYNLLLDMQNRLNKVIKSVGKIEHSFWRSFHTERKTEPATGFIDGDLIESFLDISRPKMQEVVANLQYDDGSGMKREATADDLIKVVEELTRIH
Procedure: In an effort to identify potent and selective dFKPB heterobifunctional compounds, high throughput measurements of targeted FKBP* degradation were measured by surrogate levels of luciferase. Here, FKBP* is exogenously expressed as a multicistronic transcript with two types of luciferase: nano luciferase (NLuc) and firefly luciferase (FLuc) that allow for cell normalized quantification of FKBP* protein levels. Degradation of FKBP* is measured as a signal ration (Nluc/Fluc) in wild type (FIG. 4A) or CRBN −/− (FIG. 4B) 293FT cells treated with indicated concentrations of dFKBPs for 4 hours.

[4] = 293FT CRBN-WT or CRBN−/−, indicated concentrations
[5] = isogenic 293FT CRBN-WT or CRBN−/−, 100 nM
[6] = NIH3T3 dTAG-KRASG12V, 1 μM, 24 hours

CC[C@H](C(=O)N1CCCC[C@H]1C(=O)O[C@H](CCc1ccc(OC)c(OC)c1)c1cccc(OCC(=O)NCCCOCCOCCOCCCNC(=O)COc2cccc3c2C(=O)N(C2CCC(=O)NC2=O)C3=O)c1)c1cc(OC)c(OC)c(OC)c1 (some centres unmarked) [dFKBP7]
downstream p-AKT signal ([1]; NIH3T3 N-terminal dTAG-KRAS, 500 nM, indicated time): decrease in p-AKT signal | degradation of HA-tagged FKBP* (FKBP*; [4]): CRBN-dependent degradation of FKBP* | degradation of FKBP* (FKBP*; [5]): CRBN-dependent degradation of FKBP* | targeted degradation of proteins fused to dTAG [2]: degradation was observed with nanomolar concentrations | degradation of HA-tagged FKBP12WT (FKBP12WT; [4]): not FKBPWT | degradation of FKBP12WT or endogenous FKBP12 (FKBP12WT; [5]): not FKBP12WT or endogenous FKBP12 | degradation of N-terminal dTAG-KRAS (FKBP*-KRASG12V; NIH3T3, 500 nM, indicated time): potent degradation; also recorded: degraded | cell cycle profile (S-phase entry) [3]: diminished S-phase entry | degradation of FKBP* as signal ratio (Nluc/Fluc) (FKBP* fused to Nluc): effectively degrade FKBP* in a cereblon dependent manner

CC[C@H](C(=O)N1CCCC[C@H]1C(=O)O[C@H](CCc1ccc(OC)c(OC)c1)c1cccc(OCC(=O)NCCCCCCCCNC(=O)COc2cccc3c2C(=O)N(C2CCC(=O)NC2=O)C3=O)c1)c1cc(OC)c(OC)c(OC)c1 (some centres unmarked) [dFKBP9]
inhibition of downstream signaling (pMEK, pAKT) [1, 6]: inhibition of downstream signaling | degradation of FKBP*-KRAS (FKBP*-KRASG12V; [6]): potent degradation
